# Results: patent US20060117411A1, “Enhancing plant pathogen resistance via increasing BiP levels” (priority 1998, published 2006)
# Test system: BiP mRNA
# Assay: SA spraying of tobacco plants, Northern blot of BiP mRNA
# Format: in vivo, Nicotiana tabacum
# Description: It has been shown that SA is involved in the induction of PR genes (reviewed by Malamy and Klessig, 1992) and that this signal molecule also induces the expression of ER chaperones (Denecke et al, 1995). We wanted to investigate whether ER chaperone induction is a consequence of the high synthesis rates of PR genes and used BiP as a model system. Tobacco plants were sprayed with SA (5 mM) and the exact timing of the SA-mediated induction of PR-gene PRI was compared to that of BiP. PR1 was chosen as a representative marker for SA-mediated induction of PR genes as its response to SA is faster and more pronounced than that of acidic chitinase, basic chitinase and basic β-1.3 glucanase (Vidal et al, 1997). […] In contrast SA-induced transcription of PR1 starts only after 6-8 hours and continues to accumulate upto 16 hours after treatment. At this time-point, BiP mRNA levels start to decrease again. We have shown previously that PR1 continuous to accumulate until 48 hours after SA treatment using the same experimental system (Vidal et al, 1997). […] BiP protein levels were also shown to increase (FIG. 7B), with a significant increase noticeable after 4-6 hours of induction.
# To investigate further similarities and differences in the SA-mediated induction of BiP and PR genes, we tested if the presence of light is required for the induction. The rationale for this experiment was derived from the observation that SA inhibits catalase, resulting in an increase of active oxygen species in the plant, which would then induce PR genes such as PR1 (Chen et al, 1993). Despite the fact that the inhibition of catalase activity alone is not the key route by which PR1 is induced during SA-treatment (Chamnongpol et al, 1996), a cooperative interaction of SA and H2O2 might lead to the strong induction of PR1 (Leon et al, 1995, Chen et al, 1995). […] Tobacco plants were thus sprayed with SA (5 mM) and incubated in the presence and absence of light for 6 and 16 hours. […] The data also confirm that BiP mRNA levels increase transiently and a significant decrease in mRNA levels is detectable after 16 hours of treatment (see also FIG. 7).
# We have shown that the SA-induced expression of PR1 is inhibited in a concentration dependent fashion by the presence of Erwinia carotovora culture filtrate containing cell wall-degrading enzymes (Vidal et al, 1997). […] Total RNA was extracted and the expression of chaperones was determined in relation to PR1.
# In example 6 we have shown that the UPR-induced BiP gene expression is additive to the cell wall-degrading enzyme (CDE) response. […] After floating of the leaves for 2.5 h on this medium, RNA was extracted and BiP gene expression was analysed by Northern blotting. […]
Compound,"accumulation of BiP mRNA transcripts during SA-treatment in the absence of light (SA 5 mM, 6 and 16 hours, dark vs light)",time at which BiP mRNA levels reach a plateau (sprayed with SA 5 mM) [h],time of treatment after which BiP mRNA levels are induced (sprayed with SA 5 mM) [h],"BiP transcription in SA-treated leaves floated on MS medium with tunicamycin (5 mM SA 12 h, then tunicamycin 20 μg/mL 2.5 h)"
"O=C(O)c1ccccc1O [SA, Salicylic Acid]",hardly any reduction,4,2,
tunicamycin,,,,further induction
